Test results from US12691084B2, “Pharmaceutical composition for preventing or treating bone diseases” (INDUSTRY FOUNDATION OF CHONNAM NATIONAL UNIVERSITY, priority 2019, dated 2026).

Key:
CYP2C19 = CYP2C19 (Homo sapiens, UniProt P33261); assay: CYP450 drug metabolism inhibition, 2C19; format: in vitro ADME; conditions: criterion remaining activity >50%
Experimental: (§1) In order to analyze the drug metabolism of PMSA compound, ADME evaluation was requested to the Daegu-Gyeongbuk Advanced Medical industry Promotion Foundation (DGMIF). Metabolic stability of drugs using liver microsomes (microsomal stability), drug metabolism inhibitory ability by five CYP450 enzymes, plasma metabolism (plasma stability), plasma protein binding, and intestinal permeability of drugs (PAMPA, parallel artificial membrane permeability assay) were analyzed. […] Further, it was confirmed that the permeability resistance was excellent (see Table 3 below). On the other hand, for one of PMSA derivatives, that is, 2-(N-(3,5-dimethylphenyl)methylsulfinamido)-N-(2 (phenylthio)phenyl)propanamide (#25-D5), intestinal permeability of the drug (PAMPA) was not measured.

CYP3A4 = CYP3A4 (Homo sapiens, UniProt P08684); assay: CYP450 drug metabolism inhibition, 3A4; format: in vitro ADME; conditions: criterion remaining activity >50%
CYP3A4, sequence (P08684 whole entry): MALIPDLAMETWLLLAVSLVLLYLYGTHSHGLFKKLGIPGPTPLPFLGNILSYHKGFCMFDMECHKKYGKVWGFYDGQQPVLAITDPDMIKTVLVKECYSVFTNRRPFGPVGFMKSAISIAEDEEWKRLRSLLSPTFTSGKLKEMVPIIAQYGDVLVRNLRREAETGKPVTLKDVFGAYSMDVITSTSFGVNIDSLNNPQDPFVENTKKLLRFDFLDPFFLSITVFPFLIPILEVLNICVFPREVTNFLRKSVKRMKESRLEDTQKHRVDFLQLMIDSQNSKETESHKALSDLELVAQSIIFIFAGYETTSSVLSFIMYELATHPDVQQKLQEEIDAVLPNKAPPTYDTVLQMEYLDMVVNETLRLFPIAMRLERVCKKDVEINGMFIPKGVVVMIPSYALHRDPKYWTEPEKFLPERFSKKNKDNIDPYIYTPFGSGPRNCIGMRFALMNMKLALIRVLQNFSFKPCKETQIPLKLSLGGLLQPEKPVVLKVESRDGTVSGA
Experimental: as §1

CYP2D6 = CYP2D6 (Homo sapiens, UniProt P10635); assay: CYP450 drug metabolism inhibition, 2D6; format: in vitro ADME; conditions: criterion remaining activity >50%
CYP2D6, sequence (P10635 whole entry): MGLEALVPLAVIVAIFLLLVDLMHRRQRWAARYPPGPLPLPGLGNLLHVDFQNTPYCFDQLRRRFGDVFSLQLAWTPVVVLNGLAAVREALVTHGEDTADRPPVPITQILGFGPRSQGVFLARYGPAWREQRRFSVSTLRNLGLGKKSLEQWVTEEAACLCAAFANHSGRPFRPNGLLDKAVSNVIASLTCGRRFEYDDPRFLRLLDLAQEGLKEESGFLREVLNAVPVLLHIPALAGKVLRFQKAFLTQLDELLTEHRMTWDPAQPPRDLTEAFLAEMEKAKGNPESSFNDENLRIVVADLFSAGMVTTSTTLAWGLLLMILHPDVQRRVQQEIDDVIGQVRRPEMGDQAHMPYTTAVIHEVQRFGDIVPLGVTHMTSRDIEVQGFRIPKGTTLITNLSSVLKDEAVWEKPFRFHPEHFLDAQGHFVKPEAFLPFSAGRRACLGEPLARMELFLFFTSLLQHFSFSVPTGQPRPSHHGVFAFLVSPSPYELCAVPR
Experimental: as §1

Microsomal stability (M) = format: in vitro ADME, mouse; conditions: M of H/M; criterion >60%
Experimental: as §1

[1] = system: monocytes isolated from mouse bone marrow treated with RANKL; assay: Osteoclast differentiation inhibition, TRAP staining and assay; format: cell-based; conditions: 10 μM; RANKL; TRAP staining, Image J
Experimental: Macrophages were isolated from bone marrow of 8-week old C57BL/6J mice, and seeded on a 96-well plate in an amount of 1×10^4 cells per well, followed by treating the cells with osteoclast differentiation factors M-CSF and RANKL at 30 ng/ml and 50 ng/ml, respectively. At the same time, the compounds were used for treatment, followed by culturing the cells for 3 to 4 days. Thereafter, differentiation influence was evaluated through TRAP staining and cell counting. Specific experimental procedures and results are as follows.
The bone marrow of a 10-week-old female mouse was isolated from the hip bone, femur and tibia, and incubated in α-MEM medium (Gibco, 12561-056, 10% fetal bovine serum, 1% penicillin/streptomycin) containing macrophage colony stimulating factor (M-CSF, PeproTech, 315-02, 30 ng/ml) for […] so as to isolate only monocytes. The isolated monocytes were treated with receptor activator of nuclear factor kappa B ligand (RANKL, PeproTech, 315-11, 50 ng/ml) to induce osteoclast differentiation. When a morphology of fused multinuclear cells began to appear from day 3 after treatment with RANKL, the cells were differentiated into giant multinuclear cells for 4 to 6 days (see FIG. 1), and dead by cell apoptosis after 6 days.
During RANKL treatment, each PMSA compound was also used for treatment, followed by culturing the cells for 3 or 5 days to confirm the effects of inhibiting osteoclast differentiation.
1×10^4 monocytes isolated from mouse bone marrow were put into a 96-well plate and treated with RANKL and PMSA together to confirm the effect of each PMSA on osteoclast differentiation ability. Each PMSA was used for treatment by concentration. The activity of tartrate-resistant acid phosphatase (TRAP), which has increased expression during osteoclast differentiation, was confirmed using a TRAP activity assay kit (Cosmo Bio, PMC-AK04F-COS) (see FIG. 2).
Further, after staining, the multinuclear cells formed during osteoclast differentiation were observed under a microscope, and each well was photographed and a differentiation area ratio per total area was determined using Image J software. […] Specifically, at 10 μM concentration, cells were differentiated into osteoclasts by 30% when using #25 (PMSA-3-Ac), similarly, 74% using #25-C (PMSA-Ph), 63% using #25-N (PMSA-PhN), 41% using #25-PhO (PMSA-O), and only 1% using #25-D12 (PMSA-2-OMe-5-Cl), respectively. […]

CYP2C9 = CYP2C9 (Homo sapiens, UniProt P11712); assay: CYP450 drug metabolism inhibition, 2C9; format: in vitro ADME; conditions: criterion remaining activity >50%
CYP2C9, sequence (P11712 whole entry): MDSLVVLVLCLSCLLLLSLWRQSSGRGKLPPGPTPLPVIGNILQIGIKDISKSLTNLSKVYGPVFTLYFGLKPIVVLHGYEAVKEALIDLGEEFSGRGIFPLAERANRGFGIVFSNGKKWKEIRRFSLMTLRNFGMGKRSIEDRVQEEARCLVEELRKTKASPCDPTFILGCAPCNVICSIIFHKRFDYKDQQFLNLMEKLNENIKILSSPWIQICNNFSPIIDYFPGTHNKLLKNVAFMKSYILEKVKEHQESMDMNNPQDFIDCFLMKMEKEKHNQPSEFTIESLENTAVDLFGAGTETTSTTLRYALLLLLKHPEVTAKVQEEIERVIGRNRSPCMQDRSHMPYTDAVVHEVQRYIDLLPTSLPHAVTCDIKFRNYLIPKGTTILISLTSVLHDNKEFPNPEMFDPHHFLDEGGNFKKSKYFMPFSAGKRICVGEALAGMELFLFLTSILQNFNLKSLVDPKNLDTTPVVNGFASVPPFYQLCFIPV
Experimental: as §1

plasma proteins = assay: Plasma protein binding (PPB); format: in vitro ADME, Human; conditions: for binding with plasma proteins: conclusion from ADME evaluation
Experimental: as §1

CYP1A2 = target: T1, CYP1A2 (Homo sapiens, UniProt P05177); assay: CYP450 drug metabolism inhibition, 1A2; format: in vitro ADME; conditions: criterion remaining activity >50%
T1 sequence (P05177 1-516): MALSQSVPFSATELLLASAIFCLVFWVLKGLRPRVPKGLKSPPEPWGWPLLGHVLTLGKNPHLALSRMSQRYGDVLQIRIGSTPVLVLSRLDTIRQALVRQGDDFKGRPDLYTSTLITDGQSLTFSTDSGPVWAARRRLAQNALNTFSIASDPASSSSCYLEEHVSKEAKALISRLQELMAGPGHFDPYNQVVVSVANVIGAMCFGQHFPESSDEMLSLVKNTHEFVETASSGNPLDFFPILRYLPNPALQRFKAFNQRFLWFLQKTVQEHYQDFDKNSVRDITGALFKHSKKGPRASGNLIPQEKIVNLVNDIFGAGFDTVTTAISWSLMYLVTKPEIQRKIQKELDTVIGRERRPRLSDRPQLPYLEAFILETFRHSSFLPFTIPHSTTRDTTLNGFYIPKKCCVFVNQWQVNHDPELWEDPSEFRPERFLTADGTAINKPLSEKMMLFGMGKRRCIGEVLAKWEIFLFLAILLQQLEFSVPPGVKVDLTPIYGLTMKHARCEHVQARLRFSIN
Experimental: as §1

mouse bone marrow cells = assay: Bone resorption assay on calcium phosphate coated plate; format: cell-based; conditions: 6 days; for bone resorption ability: compared to Ctrl
Experimental: Bone resorption ability was confirmed using a bone resorption assay kit (Cosmo Rio, CSR-BRA). 2.5×10^4 mouse bone marrow cells per well were put into a 48-well plate coated with calcium phosphate, followed by treating the cells with PMSA to perform differentiation for 6 days. After 6 days, a fluorescence absorbance was measured with the culture medium to confirm the bone absorption ability. Further, decomposition degree of calcium phosphate was photographed a microscope to confirm the bone resorption ability. […] In FIG. 4, BMMs refer to monocytes that are not differentiated osteoclasts.
Further, the bone resorption ability was confirmed using a bone resorption assay kit (Cosmo Bio, CSR-BRA). 2.5×10^4 mouse bone marrow cells per well were put into a 48-well plate coated with calcium phosphate, and were differentiated for 6 days while being treated with PSTP-3,5-Me. After 6 days, the fluorescence absorbance was measured with the culture medium to confirm the bone absorption ability.

[2] = ADME evaluation (DGMIF), overall conclusion on toxicity; format: in vitro ADME; conditions: conclusion from ADME evaluation
Experimental: as §1

Microsomal stability (H) = format: in vitro ADME, human; conditions: H of H/M; criterion >60%
Experimental: as §1

[3] = PAMPA, parallel artificial membrane permeability assay; format: in vitro ADME; conditions: for Papp: PAMPA, criterion >40, read-out: PAMPA (>40) Pe; for permeability resistance: conclusion from ADME evaluation
Experimental: as §1

Plasma stability = format: in vitro ADME
Experimental: as §1

CYP2C19, sequence (P33261 whole entry): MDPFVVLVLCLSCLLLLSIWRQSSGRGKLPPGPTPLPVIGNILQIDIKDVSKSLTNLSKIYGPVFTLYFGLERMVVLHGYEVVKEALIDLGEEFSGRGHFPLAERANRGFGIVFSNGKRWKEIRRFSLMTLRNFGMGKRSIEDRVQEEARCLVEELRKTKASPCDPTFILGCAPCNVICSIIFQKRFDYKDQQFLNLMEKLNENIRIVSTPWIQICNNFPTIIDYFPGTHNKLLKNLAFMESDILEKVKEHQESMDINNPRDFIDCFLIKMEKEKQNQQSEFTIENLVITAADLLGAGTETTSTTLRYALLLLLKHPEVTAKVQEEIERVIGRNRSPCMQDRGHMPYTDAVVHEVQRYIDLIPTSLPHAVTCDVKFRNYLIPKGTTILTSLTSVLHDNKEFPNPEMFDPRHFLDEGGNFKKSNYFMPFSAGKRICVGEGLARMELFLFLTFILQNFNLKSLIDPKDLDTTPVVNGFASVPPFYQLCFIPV

Structure (SMILES)	CYP 2C19 remaining activity (CYP2C19) [%]	CYP 3A4 remaining activity (CYP3A4) [%]	CYP 2D6 remaining activity (CYP2D6) [%]	Microsomal stability (>60%) M (Microsomal stability (M)) [%]	cells differentiated into osteoclasts (differentiation area ratio per total area) [1] [%]	CYP 2C9 remaining activity (CYP2C9) [%]	PPB Human (%, bound) (plasma proteins)	binding with plasma proteins (plasma proteins)	CYP 1A2 remaining activity (CYP1A2) [%]	decrease in bone resorption ability (mouse bone marrow cells; compared to differentiated osteoclasts (Ctrl) not treated, fluorescence absorbance) [%]	toxicity [2]	Microsomal stability (>60%) H (Microsomal stability (H)) [%]	Papp [3] [×10⁻⁶ cm/s]	permeability resistance [3]	Plasma S Human 30 min (% Remaining) (Plasma stability)	Plasma S Human 120 min (% Remaining) (Plasma stability)	bone resorption ability (mouse bone marrow cells)
CC(=O)c1cccc(N(CC(=O)Nc2ccccc2-c2ccccc2)S(C)(=O)=O)c1 [#25-C, N-([1,1′-biphenyl]-2-yl)-2-(N-(3-acetylphenyl)methylsulfonamido)acetamide]	6.9	72	18.3	3.7	74	67.2	97.9 %, bound	good	96.8	13.4	low toxicity	50.6	76.6	excellent	100/100 % Remaining	100/100 % Remaining	–
CC(=O)c1cccc(N(CC(=O)Nc2ccccc2Nc2ccccc2)S(C)(=O)=O)c1 [#25-N, 2-(N-(3-acetylphenyl)methylsulfonamido)-N-(2-(phenylamino)phenyl)acetamide]	9	43.1	12.6	4.0	63	47	97.9 %, bound	good	81.6	–	low toxicity	3.3	47.2	excellent	100/100 % Remaining	100/100 % Remaining	slightly decreased
CC(=O)c1cccc(N(CC(=O)Nc2ccccc2Oc2ccccc2)S(C)(=O)=O)c1 [#25-O, 2-(N-(3-acetylphenyl)methylsulfonamido)-N-(2-phenoxyphenyl)acetamide]	10.4	70.1	53.1	3.1	41	49.7	98.4 %, bound	good	100	–	low toxicity	12.5	66.2	excellent	94.3 % Remaining	96.4 % Remaining	slightly decreased
